Reference: patent US20040224014A1, “Non-hygroscopic pharmaceutical compositions containing non-hydrated quinoline carboxylic acids” (The Jordanian pharmaceutical manufacturing Co., priority 2003, published 2004)

Assay: Water uptake of norfloxacin and its formulations (FIG. 1)
Assay type: physicochemical
Conditions: depending on manufacturing procedure (wet or dry granulation) and storage temperature and humidity
Description: The water uptake for norfloxacin and its formulations may reach up to 30% and more depending on the manufacturing procedures (wet or dry granulation), and storage conditions of temperature and humidity (see FIG. 1).

water uptake: ~30%
Structure (SMILES): CCn1cc(C(=O)O)c(=O)c2cc(F)c(N3CCNCC3)cc21 [norfloxacin]
